Experimental data published in US11053204B2, “Pyrimidinyloxy benzene derivatives as herbicides” (FMC Corporation, priority 2015, dated 2021).

What was measured:
Type in all cases: in vivo
[1] = test system: galium (catchweed bedstraw, Galium aparine); experiment: Test C preemergence, plant response rating
[2] = test system: johnsongrass (Sorghum halepense); experiment: Test C preemergence, plant response rating
[3] = test system: barnyardgrass (Echinochloa crus-galli); experiment: Test C preemergence, plant response rating; conditions: Preemergence
[4] = test system: pigweed, palmer (palmer pigweed, Amaranthus palmeri); experiment: Test C preemergence, plant response rating
kochia (Kochia scoparia) = experiment: Test C preemergence, plant response rating
[5] = test system: windgrass (Apera spica-venti); experiment: Test C preemergence, plant response rating
[6] = test system: Canada thistle (Cirsium arvense); experiment: Test C postemergence, plant response rating; conditions: for Canada Thistle plant response rating: scale 0 to 100 (0 no effect, 100 complete control)
Summary of the method: (§1)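 Greenhouse plants rated visually against untreated controls 13–15 d after treatment, scale 0 = no effect to 100 = complete control. Postemergence sprays went onto potted plants 2–18 cm tall (1–4 leaves); preemergence sprays onto soil freshly sown in loam–sand or silt loam, chemicals formulated in non-phytotoxic solvent with surfactant.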

[7] = test system: buckwheat, wild (wild buckwheat, Polygonum convolvulus); experiment: Test C postemergence, plant response rating; conditions: for Buckwheat, Wild plant response rating: scale 0 to 100 (0 no effect, 100 complete control)
Summary of the method: as §1

[8] = test system: field poppy (Papaver rhoeas); experiment: Test C postemergence, plant response rating; conditions: for Field Poppy plant response rating: scale 0 to 100 (0 no effect, 100 complete control)
Summary of the method: as §1

[9] = test system: field violet (Viola arvensis); experiment: Test C postemergence, plant response rating; conditions: for Field Violet plant response rating: scale 0 to 100 (0 no effect, 100 complete control)
Summary of the method: as §1

[10] = test system: geranium, cutleaf (cutleaf geranium, Geranium dissectum); experiment: Test C postemergence, plant response rating; conditions: for Geranium, Cutleaf plant response rating: scale 0 to 100 (0 no effect, 100 complete control)
Summary of the method: as §1

[11] = test system: johnsongrass (Sorghum halepense); experiment: Test C postemergence, plant response rating; conditions: for Johnsongrass plant response rating: scale 0 to 100 (0 no effect, 100 complete control)
Summary of the method: as §1

[12] = test system: nightshade (eastern black nightshade, Solanum ptycanthum); experiment: Test C postemergence, plant response rating; conditions: for Nightshade plant response rating: scale 0 to 100 (0 no effect, 100 complete control)
Summary of the method: as §1

[13] = test system: pigweed, palmer (palmer pigweed, Amaranthus palmeri); experiment: Test C postemergence, plant response rating; conditions: for Pigweed, Palmer plant response rating: scale 0 to 100 (0 no effect, 100 complete control)
Summary of the method: as §1

[14] = test system: speedwell (bird's-eye speedwell, Veronica persica); experiment: Test C postemergence, plant response rating; conditions: for Speedwell plant response rating: scale 0 to 100 (0 no effect, 100 complete control)
Summary of the method: as §1

[15] = test system: surinam grass (Brachiaria decumbens); experiment: Test C postemergence, plant response rating
Summary of the method: as §1

[16] = test system: wild mustard (Sinapis arvensis); experiment: Test C postemergence, plant response rating; conditions: for Mustard, Wild plant response rating: scale 0 to 100 (0 no effect, 100 complete control)
Summary of the method: as §1

[17] = test system: wild poinsettia (Euphorbia heterophylla); experiment: Test C postemergence, plant response rating; conditions: for Poinsettia, Wild plant response rating: scale 0 to 100 (0 no effect, 100 complete control)
Summary of the method: as §1

[18] = test system: windgrass (Apera spica-venti); experiment: Test C postemergence, plant response rating
Summary of the method: as §1

[19] = 125 g ai/ha, scale 0 to 100 (0 no effect, 100 complete control)

N#CC(CCCC(F)(F)F)c1ccccc1Oc1ncc(Cl)cn1 (stereo not drawn) [Compound 144]
Plant response rating, Galium ([1]; 31 g ai/ha, scale 0 to 100): 50
Plant response rating, Galium ([1]; 62 g ai/ha, scale 0 to 100): 50
Plant response rating, Galium ([1]; 125 g ai/ha, scale of 0 to 100): 55
Plant response rating, Johnsongrass ([2]; 31 g ai/ha, scale 0 to 100): 10
Plant response rating, Johnsongrass ([2]; 62 g ai/ha, scale 0 to 100): 40
Plant response rating, Johnsongrass ([2]; 125 g ai/ha, scale of 0 to 100): 70
Plant response rating, Barnyardgrass ([3]; 125 g ai/ha, scale of 0 to 100): 95
Plant response rating, Barnyardgrass ([3]; 16 g ai/ha, scale 0 to 100): 10
Plant response rating, Barnyardgrass ([3]; 31 g ai/ha, scale 0 to 100): 40
Plant response rating, Barnyardgrass ([3]; 62 g ai/ha, scale 0 to 100): 70
Plant response rating, Pigweed, Palmer ([4]; 31 g ai/ha, scale 0 to 100): 100
Plant response rating, Pigweed, Palmer ([4]; 62 g ai/ha, scale 0 to 100): 100
Plant response rating, Pigweed, Palmer ([4]; 125 g ai/ha, scale of 0 to 100): 100
Plant response rating, Kochia (kochia (Kochia scoparia); 31 g ai/ha, scale 0 to 100): 90
Plant response rating, Kochia (kochia (Kochia scoparia); 62 g ai/ha, scale 0 to 100): 100
Plant response rating, Kochia (kochia (Kochia scoparia); 125 g ai/ha, scale of 0 to 100): 100
Plant response rating, Windgrass ([5]; 31 g ai/ha, scale 0 to 100): 30
Plant response rating, Windgrass ([5]; 62 g ai/ha, scale 0 to 100): 80
Plant response rating, Windgrass ([5]; 125 g ai/ha, scale of 0 to 100): 90
Plant response rating, Canada Thistle ([6]; 16 g ai/ha, scale of 0 to 100): 90
Plant response rating, Canada Thistle ([6]; 31 g ai/ha, scale 0 to 100): 60
Canada Thistle plant response rating ([6]; 62 g ai/ha): 90
Canada Thistle plant response rating ([6]; 125 g ai/ha): 90
Plant response rating, Buckwheat, Wild ([7]; 16 g ai/ha, scale of 0 to 100): 70
Plant response rating, Buckwheat, Wild ([7]; 31 g ai/ha, scale 0 to 100): 55
Buckwheat, Wild plant response rating ([7]; 62 g ai/ha): 80
Buckwheat, Wild plant response rating ([7]; 125 g ai/ha): 95
Plant response rating, Field Poppy ([8]; 16 g ai/ha, scale of 0 to 100): 60
Plant response rating, Field Poppy ([8]; 31 g ai/ha, scale 0 to 100): 80
Field Poppy plant response rating ([8]; 62 g ai/ha): 90
Field Poppy plant response rating ([8]; 125 g ai/ha): 100
Plant response rating, Field Violet ([9]; 16 g ai/ha, scale of 0 to 100): 60
Plant response rating, Field Violet ([9]; 31 g ai/ha, scale 0 to 100): 65
Field Violet plant response rating ([9]; 62 g ai/ha): 80
Field Violet plant response rating ([9]; 125 g ai/ha): 90
Plant response rating, Geranium, Cutleaf ([10]; 16 g ai/ha, scale of 0 to 100): 15
Plant response rating, Geranium, Cutleaf ([10]; 31 g ai/ha, scale 0 to 100): 20
Geranium, Cutleaf plant response rating ([10]; 62 g ai/ha): 35
Geranium, Cutleaf plant response rating ([10]; 125 g ai/ha): 40
Plant response rating, Johnsongrass ([11]; 16 g ai/ha, scale of 0 to 100): 5
Plant response rating, Johnsongrass ([11]; 31 g ai/ha, scale 0 to 100): 5
Johnsongrass plant response rating ([11]; 62 g ai/ha): 5
Johnsongrass plant response rating ([11]; 125 g ai/ha): 5
Plant response rating, Nightshade ([12]; 16 g ai/ha, scale of 0 to 100): 65
Plant response rating, Nightshade ([12]; 31 g ai/ha, scale 0 to 100): 75
Nightshade plant response rating ([12]; 62 g ai/ha): 75
Nightshade plant response rating ([12]; 125 g ai/ha): 90
Plant response rating, Pigweed, Palmer ([13]; 16 g ai/ha, scale of 0 to 100): 25
Plant response rating, Pigweed, Palmer ([13]; 31 g ai/ha, scale 0 to 100): 35
Pigweed, Palmer plant response rating ([13]; 62 g ai/ha): 40
Pigweed, Palmer plant response rating ([13]; 125 g ai/ha): 80
Plant response rating, Speedwell ([14]; 16 g ai/ha, scale of 0 to 100): 60
Plant response rating, Speedwell ([14]; 31 g ai/ha, scale 0 to 100): 70
Speedwell plant response rating ([14]; 62 g ai/ha): 95
Speedwell plant response rating ([14]; 125 g ai/ha): 95
Plant response rating, Surinam Grass ([15]; 16 g ai/ha, scale of 0 to 100): 10
Plant response rating, Surinam Grass ([15]; 31 g ai/ha, scale 0 to 100): 20
Surinam Grass plant response rating [15, 19]: 25
Plant response rating, Mustard, Wild ([16]; 16 g ai/ha, scale of 0 to 100): 70
Plant response rating, Mustard, Wild ([16]; 31 g ai/ha, scale 0 to 100): 70
Mustard, Wild plant response rating ([16]; 62 g ai/ha): 80
Mustard, Wild plant response rating ([16]; 125 g ai/ha): 95
Plant response rating, Poinsettia, Wild ([17]; 16 g ai/ha, scale of 0 to 100): 30
Plant response rating, Poinsettia, Wild ([17]; 31 g ai/ha, scale 0 to 100): 35
Poinsettia, Wild plant response rating ([17]; 62 g ai/ha): 50
Poinsettia, Wild plant response rating ([17]; 125 g ai/ha): 60
Plant response rating, Windgrass ([18]; 16 g ai/ha, scale of 0 to 100): 10
Plant response rating, Windgrass ([18]; 31 g ai/ha, scale 0 to 100): 10
Windgrass plant response rating [18, 19]: 30
